“Also recorded” adds a separate entry of the source.
Columns and labels:
rats = test: Modified Irwin test (FOB, SAC, FU); format: in vivo, rat; settings: 0.01-30 mg/kg
Description: In this study the compounds of the present invention were screened for basal behavioural, autonomic, neurological and toxicological side-effects in rats. For this purpose, a functional observational battery (FOB) in form of an Irwin test (Irwin S., Psychopharmacologia, 1968, 13, 222; 1968; Warburton D. M. Psychopharmacology, 2002, 163, 4; Haggerty G. C. et al., J. Amer. Coll. Toxicol., 1991, 10, 677; Mattsson J. L. et al., J. Amer. Coll. Toxicol., 1996, 15, 239, all references are herein incorporated by reference) modified and validated by the Test Facility was used. Each test compound was tested at eight doses (0.01, 0.03, 0.1, 0.3, 1.0, 3.0, 10.0 and 30.0 mg/kg). All compounds were dissolved in DMSO (administration volume 1 ml/kg). Each dose group included three animals. Two vehicle groups (DMSO and Labrasol) served as negative controls.
At the first day of each test week all test compound solutions necessary for the test (1-2 weeks) were prepared by means of one dilution series starting with the highest concentration. All test compounds dissolved in DMSO were administered in a volume of 1 ml/kg. DMSO-containing solutions were stored at −18° C. All solutions were melted for administration at room temperature 16-20 hours before the start of the test.
Study design and time schedule:
4-7 days: Acclimatization and handling of the animals 1 day: Test day with • (a) Four repeated functional observational battery (FOB): 30 min, 60 min, 120 min, 180 min following compound administration • (b) Short animal check (SAC): 300 min following compound administration 1 day: Follow-up observation (FU): • 24 h (1440 min) following compound administration.
In all experimental parts, an experienced ethologist used lists of predefined methods and behavioural parameters in order to rate the behaviour of the animal (see table 7 for functional observational battery (FOB), table 8 for short animal check (SAC) and table 9 for follow-up observation (FU).
A statistical evaluation of the data was performed that enabled an assessment of the compound's effects on each parameter. Dose-response relationships are not necessarily linear. It was not clear a priori whether the response would be dose-dependent or whether low, medium or high dose effects would occur. Therefore, the data were correlated against a set of different numeric models of theoretical dose-response curves. For this kind of evaluation the measurement times were not differentiated. An average value over all measurement times was calculated for each animal. This value was taken as one measurement within the observation vector. The complete set of parameters measured for the animal (each one averaged over time) formed the observation vector. Each dose was then represented by three observation vectors (3 animals per dose). The effects of all doses were compared with vehicle (DMSO) as the observation vectors for the zero dose. A common pool of 24 animals for the zero dose was used for all compounds to be tested. For each test compound the obtained values for each parameter together with values from the pool of vehicle-treated (DMSO) animals were then correlated with theoretical dose-response models (analysis profiles). Since 8 doses were be used, there were 8 models, each assuming that the maximum compound effect occurred at one of these doses. Effects of other doses were assumed to be attenuated with a linearly descending slope of the theoretical curve. Correlation values and statistical significance of regression were then calculated. An error probability of p<0.05 (two-tailed testing) was taken as significance level. Non-significant regressions were neglected. In consequence, each parameter was assessed as not affected or affected by the compound in a dose-response relationship according to type 1 (low dose effect) up to type 8 (high dose effect). Dose response is maximal for the effect with the greatest absolute correlation coefficient. […]

[1] = tested on: Reserpine induced catalepsy; test: Acute Reserpine induced catalepsy test; format: in vivo, rat; settings: for effect on catalepsy time in acute Reserpine induced catalepsy model: i.p. in DMSO, 0.1-10 mg/kg; for maximum catalepsy values after Reserpine treatment / median catalepsy values after Reserpine treatment: vs only Reserpine-treated animals
Procedure: Animals were administered with Reserpine or CGS-21680 according to methods known to the skilled person in the art. These models and procedures are e.g. described by Ferré S. et al., Neurosci. Let., 1991, 130, 162; Ferré S. et al., Neuroscience, 1992, 51, 501; Kafka S. H. et al., Eur. J. Pharmacol., 1996, 295, 147; Rimondini R. et al., Neuropsychopharmacology, 1997, 17, 82 and are herein incorporated by reference. In the acute CGS-21680 induced catalepsy model (CGS model) the test compounds (TC, compounds according to the present invention) and CGS-21680 (i.p. 2 mg/kg) were administered 60 minutes before the start of the catalepsy bar measurement and behavioural testing described below (see also FIG. 1). In the acute Reserpine induced catalepsy model (RES model Resperine (subcutaneously, 3 mg/kg) was injected 24 h prior to the test compound application. Catalepsy bar measurement took place 60 minutes after test compound application (see FIG. 1). Test compounds were administered i.p. in DMSO in following doses (mg/kg): 0.1, 0.3, 1, 3, 10.
Dimethylsulfoxide (DMSO) was used as vehicle for the test compounds and Reserpine. Reserpine was dissolved in DMSO in a concentration of 3 mg/ml. A 10% (w/v) Cyclodextrin solution was used as vehicle for CGS-21680. CGS 21680 was dissolved in 10% (w/v) Cyclodextrine in a concentration of 2 mg/ml.
Apomorphine was used as a reference compound in the Reserpine induced catalepsy model. Apomorphine injection solution was diluted with purified water to a concentration of 0.3 mg/ml. The solution was administered subcutaneously (s.c.) in a volume of 1 ml/kg (0.3 mg/kg) 20 minutes before the begin of testing after Reserpine pre-treatment (25 hours prior to testing).
The catalepsy bar after Reserpine administration was measured (CAT) as follows: The rat was placed with its forepaws on a log of wood. […] The animal was tested for three trials and the time for each trial was noted. The following parameters were calculated: maximum time to descend (s) and median time to descend (s). […]
All statistical tests were performed two tailed with a value of p<0.05 considered as significant.
To assess the effects of CGS-21680 and Reserpine pre-treatment compared to vehicle treated controls statistical comparisons between the test groups were performed using a U test statistic.
To assess the effects of test compounds on CGS-21680 and Reserpine pre-treated animals correlation analyses including animals from test groups and the respective test compound-treated groups were performed.
Additionally, parametric and non-parametric comparisons for the median catalepsy measure were performed to assess the reliability of the method. In case of parametric testing a GLM analyses was performed including animals from a control group (only vehicle treated animals) and the respective test compound-treated groups with dose as a categorical factor. In case of a significant result, a Dunnett's post hoc test was performed between the according test compound groups and a control group as reference group. In case of non-parametric testing a Kruskal-Wallis H-test was performed including animals from a control group and the respective test compound groups. In case of a significant result single U-test comparisons were performed between a control group and the groups treated with different doses of the test compound.

[2] = tested on: haloperidol induced model of Parkinson's Disease; test: Haloperidol induced model of Parkinson's Disease; settings: in vivo

For `C#CCn1c(=O)c2c(nc(C#Cc3ccc(OC)c(OC)c3)n2C)n(CC)c1=O` [test compound 1, 3-ethyl-8-(3,4-dimethoxyphenylethynyl)-7-methyl-1-prop-2-ynyl-3,7-dihydropurine-2,6-dione], the “activity in the Irwin Test (hyperlocomotion)” value (rats) was “potent hyperlocomotion”, the “effect on catalepsy time in acute Reserpine induced catalepsy model” value [1] was “significantly reduced catalepsy time; also recorded: significant reduction of catalepsy time” and the “maximum catalepsy values after Reserpine treatment” value [1] was “only weakly reduced”. The “median catalepsy values after Reserpine treatment” value [1] was “significantly reduced” and the “effect in haloperidol induced model of Parkinson's Disease” value [2] was “effective; also recorded: significant effects”.
With `C#CCn1c(=O)c2c(nc(C#Cc3ccc(OC)c(OC)c3)n2C)n(CCCO)c1=O` [test compound 2, 3-(3-hydroxypropyl)-8-(3,4-dimethoxyphenylethynyl)-7-methyl-1-prop-2-ynyl-3,7-dihydropurine-2,6-dione] the “activity in the Irwin Test (hyperlocomotion)” value (rats) was “potent hyperlocomotion”, the “effect on catalepsy time in acute Reserpine induced catalepsy model” value [1] was “reduced catalepsy time; also recorded: significant reduction of catalepsy time” and the “maximum catalepsy values after Reserpine treatment” value [1] was “significantly decreased”. The “median catalepsy values after Reserpine treatment” value [1] was “significantly decreased”.

Reference: patent US20080221134A1, “8-ALKYNYLXANTHINES AND DERIVATIVES” (priority 2006, published 2008)
